Values joined by “and” are separate entries in the source; they are usually repeats but may differ in a detail not shown here. Identical values can stand only once. Active and inactive are the calls of the source.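 Rule for the calls: active = compounds giving half or more protection of infected cells from virus-caused growth loss, again on retest; inactive = the rest.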

The assay deals with CEM cells HIV-1 protection, formazan growth assay. The assay can be described thus: NCI AIDS Antiviral Assay. Particulars: for IC50: measured here: growth of uninfected CEM cells. The essentials:
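Protection of CEM cells against HIV-1 was scored from cell growth (soluble formazan) across five concentrations, with parallel uninfected cells. Lack of protection may reflect toxicity.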

As to `Cc1c(CN2CCN(C)CC2)c(CN2CCN(C)CC2)c(C)n1-c1ccc(Cl)cc1`, the EC50 was greater than 151 µM and the IC50 is 26.3 µM.
Taken in the same sequence, the figures for `Cc1nnc(SCC2=C(C(=O)O)N3C(=O)C(NC(=O)Cn4cc(Cl)c(=O)c(Cl)c4)C3SC2)s1` (stereo not drawn) were greater than 200 µM and greater than 200 µM.
On the same counts, the results for `O=C(O)c1cc2cc3c(cc2c2ccccc12)OCO3` are greater than 490 µM and 282 µM.
With `COC(=O)Cc1c(-c2[nH]c3ccccc3c2CC(=O)OC)[nH]c2ccccc12`, the result was inactive.
Turning to `COC1/C=C/OC2(C)Oc3c(C)c(O)c4c(O)c(cc(OCC(=O)N(C)CCCCC(=O)O)c4c3C2=O)NC(=O)/C(C)=C/C=C/C(C)C(O)C(C)C(O)C(C)C(OC(C)=O)C1C` (stereo not drawn), the EC50 is greater than 200 µM and the IC50 worked out at 19.1 µM.
On the same counts, the results for `CC1(C)N=C(N)N=C(N)N1c1cccc(/C=C(\C#N)c2ccccc2)c1` are greater than 200 µM and 4.79 µM.
On the same counts, the results for `O=C(CCc1ccc(O)c(O)c1)OCCc1ccccc1` are greater than 200 µM and 6.61 µM.
With `O=C(OC1(c2ccccc2)OC(=O)c2ccccc21)c1ccccc1C(=O)c1ccccc1` (stereo not drawn), the outcome was inactive.
The same measure, in the same setting: for `COC12OCCN(C)C1=CC(=O)C1=NNC(C)C12` (stereo not drawn) the value was “inactive”.
On to `CCc1cccc(C(C)(C)C)c1NC(=S)N/C=C(\C#N)C(=O)c1ccc2ccccc2c1`, for which the EC50 was greater than 200 µM and the IC50 was found to be 93.3 µM.
On the same counts, the results for `C[C@H]1[C@H](NC(=O)/C(=N\OC(C)(C)C(=O)O)c2csc(N)n2)C(=O)N1S(=O)(=O)O` are greater than 575 µM and greater than 575 µM.
On to `CC1=N/C(=C\c2cccc(C#N)c2)C(=O)O1`, for which the EC50 is greater than 170 µM and the IC50 is 97.7 µM.
In the case of `CC1OC(O[C@@H]2C=C3CC[C@@H]4[C@H](CC[C@]5(C)[C@@H](c6ccc(=O)oc6)CC[C@]45O)[C@@]3(C)CC2)C(O)C(OC2OC(CO)C(O)C(O)C2O)C1O` (stereo partly drawn), the EC50 was greater than 0.02 µM and the IC50 stood at 0.00295 µM.
On the same counts, the results for `CCOP(=S)(OCC)Oc1ccc(Sc2ccc(OP(=S)(OCC)OCC)cc2)cc1` are greater than 200 µM and 30.9 µM.
Taken in the same sequence, the figures for `COc1cccc2c1OC(c1cccc3ccccc13)C([N+](=O)[O-])=C2` (stereo not drawn) were greater than 2 µM and 1.07 µM.
On the same counts, the results for `C=CCOCC1C2CCC3(OCCO3)C21` (stereo not drawn) are greater than 200 µM and 148 µM.
For `COC(=O)C1=C(\N2CCOCC2)CCCCC/C=C\1C(=O)OC`, the EC50 was greater than 776 µM and the IC50 worked out at 513 µM.
On the same counts, the results for `CC(=O)O[C@]12CCCCCC1C1(O)C(O)CCC[C@H]12` (stereo partly drawn) are greater than 200 µM and greater than 200 µM.
For `O=C1NC(N/N=C\C(O)C(O)C(O)CO)=N/C1=C/c1ccccc1` (stereo not drawn), the EC50 was > 200 µM and 38 µM; the IC50 is 89.1 µM and 105 µM.
`O=C(O)c1cc(N=Nc2ccc(/C=C/c3ccc(N=Nc4ccc(O)c(C(=O)O)c4)cc3S(=O)(=O)O)c(S(=O)(=O)O)c2)ccc1O`: the EC50 was 22.4 µM and the half-inhibitory concentration (IC50) was found to be 36.3 µM.
On the same counts, the results for `COC(=O)[C@H](Cc1c[nH]c2ccccc12)NP(=O)(O)OC[C@H]1O[C@@H](n2cc(C)c(=O)[nH]c2=O)C[C@@H]1N=[N+]=[N-]` are 28.2 µM and greater than 200 µM.
Taken in the same sequence, the figures for `Cc1cccc(NC(=S)NC(=O)c2ccccc2)n1` were greater than 200 µM and greater than 200 µM.
As for `C[N+](C)(C)CC1CCC(C[N+](C)(C)C)C1=O` (stereo not drawn), the outcome was inactive.
On the same count and under the same terms, the result for `O=c1nc2c(c(-c3cccc(Cl)c3)[nH]1)COC/C2=C\c1cccc(Cl)c1` reads “inactive”.
Consider `COc1ccc(C2CC(=O)c3c(cc(OC)c(OC)c3OC)O2)cc1` (stereo not drawn), for which the EC50 was greater than 200 µM and the 50% inhibitory concentration (IC50) came to 20.9 µM.
Taken in the same sequence, the figures for `CC1(C)CC(=O)c2c(N)n[nH]c2C1` were 11.2 µM and greater than 200 µM.
On the same counts, the results for `CSc1nc2c(c(O)c(C)c(=O)n2C2OCC(OC(C)=O)C(OC(C)=O)C2OC(C)=O)c(=O)n1C` (stereo not drawn) are greater than 70.8 µM and greater than 70.8 µM.
Taken in the same sequence, the figures for `CC(=O)Nc1c(S(=O)(=O)c2ccccc2)c(C)c(C)n1CCN(C)C` were greater than 200 µM and greater than 200 µM.
Regarding `O=C(CNc1ccccc1[N+](=O)[O-])Nn1cnc2ccc(S(=O)(=O)Nc3ccccc3[N+](=O)[O-])cc2c1=O`, the EC50 is greater than 200 µM and the half-inhibitory concentration (IC50) was greater than 200 µM.
As to `COc1ccc2c(c1)OCC1Cc3ccccc3OC21` (stereo not drawn), the EC50 is greater than 200 µM and the IC50 worked out at 53.7 µM.
On to `CC(C)(C)OC(=O)CC(NC(=O)OCc1ccccc1)NC(=O)OC(C)(C)C` (stereo not drawn), for which the EC50 is greater than 200 µM and the concentration for half-maximal inhibition (IC50) is greater than 200 µM.
In the case of `CCNCCN.[O-][Cl+3]([O-])([O-])[O-].[Pd+2].c1ccc(-c2ccccn2)nc1`, the EC50 is greater than 200 µM and the IC50 was 30.9 µM.
In the case of `COc1ccc(C2=C(Cl)c3cc(OC)c(OC)cc3C2OC)cc1OC` (stereo not drawn), the EC50 is greater than 26.3 µM and the IC50 is greater than 26.3 µM.
Turning to `CC(=O)Nc1ccc(-c2nnc(SCC(=O)Nc3ccccc3C)o2)cc1`, the EC50 was greater than 67.6 µM and the 50% inhibitory concentration (IC50) amounted to 61.7 µM.
Take `CCNc1cnc2c(n1)c(=O)n(C)c(=O)n2C`: the EC50 was greater than 200 µM and the IC50 was greater than 200 µM.
For `OCC1CC(F)C(n2cnc3c(I)ncnc32)O1` (stereo not drawn), the EC50 was greater than 138 µM and the concentration for half-maximal inhibition (IC50) amounted to 63.1 µM.
As to `FC(F)(Oc1ccccc1)c1nc2ccccc2o1`, the EC50 was greater than 200 µM and the IC50 came out at 64.6 µM.
As to `Cc1ccc(S(=O)(=O)NCCSCCNS(=O)(=O)c2ccc(C)cc2)cc1`, the EC50 was greater than 575 µM and the half-maximal inhibitory concentration (IC50) was greater than 575 µM.
In the case of `NC(N)=N/N=C(\c1ccccc1)C(O)c1ccccc1` (stereo not drawn), the EC50 was greater than 200 µM and the IC50 was 107 µM.
In the case of `O=Cc1cc([N+](=O)[O-])no1`, the result was inactive.
For the molecule `Cc1nc2c(-c3ccccc3)[nH]c(C)c2c(=O)o1`, the EC50 is greater than 200 µM and the IC50 was 69.2 µM.
Regarding `CCOC(=O)c1csc(-c2nc(CCNC(=O)c3ccccc3)sc2Cl)n1`, the EC50 was greater than 85.1 µM and the half-maximal inhibitory concentration (IC50) was determined as 44.7 µM.
On the same counts, the results for `Cc1ccc(NC(=O)C2C(=O)N(c3ccc(C)cc3)C(=O)/C2=N\NC(N)=S)cc1` (stereo not drawn) are greater than 12.6 µM and greater than 12.6 µM.
Taken in the same sequence, the figures for `COc1ccc(NC(=S)NNC(=O)c2cc(-c3ccccc3)nc3ccccc23)cc1` were greater than 200 µM and 35.5 µM.
On the same counts, the results for `O=S(C/C=C/CS(=O)c1ccccc1)c1ccccc1` (stereo not drawn) are greater than 813 µM and 70.8 µM.
As to `COc1cc(N(CCC#N)CCC#N)ccc1/C=C1\SC(=S)NC1=O`, the EC50 is greater than 200 µM and the IC50 is greater than 200 µM.
On to `COC1OCC(N)C(O)C1O` (stereo not drawn), for which the result was inactive.
For the molecule `COc1c2cc(C(C)(C)C)cc1Cc1cccc(c1O)Cc1cc(C(C)(C)C)cc(c1OC)Cc1cccc(c1O)Cc1cc(C(C)(C)C)cc(c1OC)Cc1cccc(c1O)C2`, the EC50 is greater than 151 µM and the IC50 was greater than 151 µM.
Turning to `Cc1ccccc1NC(=O)Cc1csc2[n+]1C(=O)/C(=C/c1ccc([N+](=O)[O-])cc1)S2`, the EC50 is greater than 200 µM and the half-maximal inhibitory concentration (IC50) turned out to be 38.9 µM.
For `Cc1cnc2c(c1)CCCC2C(N)=S` (stereo not drawn), the outcome was inactive.
Turning to `CC(C)(C)N=NNc1cn(C2OC(CO)C(O)C2O)c(=O)[nH]c1=O` (stereo not drawn), the EC50 was greater than 724 µM and the half-inhibitory concentration (IC50) is greater than 724 µM.
Consider `CSc1c(C)n([O-])c2cc(Cl)c(Cl)cc2[n+]1=O`, for which the EC50 was greater than 100 µM and the IC50 was determined as 2.82 µM.
For the molecule `O=C(Nc1ccc(Sc2ccc(N=Nc3c(O)c(S(=O)(=O)O)cc4cc(S(=O)(=O)O)ccc34)cc2)cc1)c1ccc(N=Nc2ccc3c(S(=O)(=O)O)cccc3c2O)cc1`, the result was inactive.
Turning to `CC1OC(O[C@H]2C3C=CO[C@@H](OC4OC(CO)C(O)C(O)C4O)C3[C@@]3(COC(=O)/C=C/c4ccccc4)O[C@@H]23)C(O)C(O)C1O` (stereo partly drawn), the EC50 was greater than 200 µM and the half-inhibitory concentration (IC50) is greater than 200 µM.
Take `CCOC(=O)c1c(NC(=O)CCl)ssc1=S`: the EC50 was greater than 200 µM and the concentration for half-maximal inhibition (IC50) was determined as 50.1 µM.
As for `O=C(Nc1c(C(=O)NC2CCCCC2)[nH]c(=O)[nH]c1=O)c1ccc(Cl)cc1`, the outcome was inactive.
For the molecule `O=C(O)c1cnccc1-c1cc(=O)[nH]n1-c1ccccc1`, the EC50 is greater than 200 µM and the IC50 was 30.2 µM.
Taken in the same sequence, the figures for `Cc1ccc(S(=O)(=O)NC(=O)OC23COCN2COC3)cc1` were greater than 759 µM and 132 µM.
As for `CN1CCCCCCCC(=O)C(OC(=O)c2ccc([N+](=O)[O-])cc2)CCCCCCC1` (stereo not drawn), the EC50 is greater than 100 µM and the IC50 was 72.4 µM.
On the same counts, the results for `CC[As](CC)SCC1OC(OC(C)=O)C(OC(C)=O)C(OC(C)=O)C1OC(C)=O` (stereo not drawn) are greater than 191 µM and 4.57 µM.
On the same counts, the results for `O=C(O)Cn1cc([N+](=O)[O-])c(=O)c2ccccc21` are greater than 200 µM and greater than 200 µM.
Taken in the same sequence, the figures for `CN(C)c1ccc(/C=C\C#N)cc1` were greater than 97.7 µM and greater than 97.7 µM.
With `CCOC(=O)c1c(-c2ccccc2)oc(-c2ccccc2)c1C(=O)OCC`, the result was inactive.
In the case of `C/C(=N\NC(=O)c1ccncc1)c1ccc(F)cc1`, the EC50 is greater than 363 µM and the IC50 was greater than 363 µM.
As to `CN(C)c1ccc(/C=C2\Oc3cc(O)ccc3C2=O)cc1`, the EC50 is greater than 200 µM and the concentration for half-maximal inhibition (IC50) turned out to be 45.7 µM.
With `CCOC(=O)c1c(N2CCOCC2)[nH]c(=O)c(C(c2ccc(N(C)C)cc2)c2c(O)c(C(=O)OCC)c(N3CCOCC3)[nH]c2=O)c1O`, the EC50 is greater than 200 µM and the half-maximal inhibitory concentration (IC50) was greater than 200 µM.
In the case of `Cc1cnc2cc(Cl)ccc2c1NCCN(CC(C)C)CC(C)C`, the EC50 is greater than 1 µM and the IC50 was greater than 1 µM.
As for `O=C1C=CC2CCC1C2` (stereo not drawn), the outcome was inactive.
On to `Nc1cc(Cl)ccc1S`, for which the EC50 was greater than 200 µM and the IC50 stood at 13.8 µM.
Taken in the same sequence, the figures for `Cc1ccccc1N(CCC#N)C1=NN(C(=O)CC(=O)Nc2ccc(Cl)cc2)C(c2ccccc2)C1` (stereo not drawn) were greater than 501 µM and greater than 501 µM.
